In brackets after ≈: the same amount, converted by molar mass. Like-named read-outs stand apart in the source and are kept apart here. Values belong to the molecule of their own block, whether it stands above or below them.
Assays:
[1] = test system: C. jejuni; assay: MIC testing by broth dilution, C. jejuni; format: cell-based, Campylobacter jejuni
Method in brief: (§1)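 Twofold broth microdilution from 32 μg/ml down to 0.06, in LB for E. coli, Trypticase Soy for S. epidermidis (planktonic) and Brain Heart Infusion for C. jejuni. C. difficile: anaerobic disk diffusion on Wilkins Chalgrin agar, inhibition zone expressed as a ratio to the NTZ zone.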

[2] = test system: E. coli biofilm; assay: E. coli biofilm assay (activity tables); format: cell-based, Escherichia coli
Method in brief: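 After 24 h static culture at 37 °C in wells containing NTZ, strain 042 (1:100 inoculum) biofilm was quantified by 0.5% crystal violet absorbance at 570 nm. Planktonic growth was taken from turbidity or LB plate counts as cfu/ml; all runs triplicate, reported as mean and SD.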

[3] = test system: PFOR (pyruvate ferredoxin oxidoreductase); assay: Direct PFOR enzyme assay; format: biochemical
Experimental: (§2) Representative compounds of the invention were tested in a series of assays against a series of organisms as described above. […] The organisms tested include, C. difficile, H. pylori, C. jejuni, MRSA, S. epidermidis, and E. coli. S. epidermidis and E. coli were tested in the plank and biofilm assay. A disk diffusion assay was also used for C. difficile. Direct PFOR enzyme assays were also performed. All analogues and derivatives were not tested on every organism in every type of assay (the “-” in each table means that it was not tested).

[4] = test system: MRSA; assay: MIC testing by broth dilution, MRSA; format: cell-based, Staphylococcus aureus
Method in brief: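 Values are broth-dilution MICs, defined as the well showing no growth on visual reading after 24 h; the tested range was 32 to 0.06 μg/ml, in organism-specific media (LB, Trypticase Soy, Brain Heart Infusion). The C. difficile entries come instead from anaerobic Kirby-Bauer disk zones, normalised to NTZ.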

[5] = test system: C. difficile; assay: MIC by agar dilution, C. difficile; format: cell-based, Clostridium difficile
Experimental: A standard broth dilution protocol was used in 96 well microplates containing a standard dilution of the microorganism to be tested in 100 microliters of the appropriate medium. Appropriate medium: E. coli, LB medium; Staphylococcus strains, Trypticase Soy; and for H. pylori and C. jejuni, Brain Heart Infusion. The compounds to be tested were set at 32 μg/ml in 200 microliters in well one and then serially diluted to provide a range from 32 to 0.06. The wells were scored visually at 24 h. The well where there was no growth was recorded as the MIC. […]
as §2

[6] = test system: C. difficile; assay: Disk diffusion (Kirby Bower), C. difficile; format: cell-based, Clostridium difficile; settings: for Disk Diff (%) C. difficile: Nitazoxanide = 100, Furan analogues table; for Disk Diffusion (%) C. difficile: zone of inhibited growth as relative ratio to the zone for NTZ
Method in brief: as §1

[7] = test system: E. coli; assay: MIC testing by broth dilution, E. coli plank; format: cell-based, Escherichia coli
Method in brief: as §1

[8] = test system: H. pylori; assay: MIC testing by broth dilution, H. pylori; format: cell-based, Helicobacter pylori
Method in brief: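 Broth dilution MIC determination against H. pylori: a standard inoculum in 100 microliters of Brain Heart Infusion medium was placed in 96 well microplates. Test compounds began at 32 μg/ml in 200 microliters in well one and were serially diluted over a 32 to 0.06 range. After 24 h, plates were scored by eye and the first well without growth was recorded as the MIC.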

[9] = test system: S. epidermidis; assay: MIC testing by broth dilution, S. epidermidis plank; format: cell-based, Staphylococcus epidermidis
Method in brief: as §1

[10] = test system: S. epidermidis biofilm; assay: S. epidermidis biofilm assay (activity tables); format: cell-based, Staphylococcus epidermidis; settings: for MIC S. epidermidis Biofilm: Furan analogues table
Experimental: Staphylococcal strains were cultured overnight in TSB at 37° C. with shaking, diluted in fresh medium to an OD600 of 0.01 and 200 W was dispensed into sterile flat bottom polystyrene 96 well microtiter plates (Costar 3596, Corning Inc.). […] Each compound and dilution was tested in triplicate. The plates were incubated overnight at 37° C. in a humidified incubator, without shaking and both growth and biofilm accumulation were determined at 16 h.
Following recording of turbidities, the culture medium was aspirated and the wells were washed three times with distilled water, blotted on paper towels, and fixed with 75% ethanol for 10 minutes.
To visualize biofilm material, 0.5% crystal violet was added to each well and after 5 minutes was removed and the wells washed three times with distilled water. Plates were read using a microplate reader at a wavelength of 570 nm. The dye was then extracted by adding 200 W of 95% ethanol, and the absorbance was read again at 570 nm. All assays were performed in triplicate and the mean and standard deviation determined. […]
as §2

[11] = broth dilution, Brain Heart Infusion, 24 h, read-out: MIC (μM) C. jejuni
[12] = broth dilution, Trypticase Soy, 24 h, read-out: MIC (μM) S. epidermidis Plank
[13] = biofilm, read-out: MIC (μM) E. coli Biofilm
[14] = broth dilution, Trypticase Soy, 24 h, read-out: MIC (μM) MRSA
[15] = agar dilution, anaerobic, Wilkins Chalgrin agar, read-out: MIC (μM) C. difficile
[16] = broth dilution, LB medium, 24 h, read-out: MIC (μM) E. coli Plank
[17] = broth dilution, Brain Heart Infusion, 24 h, read-out: MIC (μM) H. pylori
[18] = Furan analogues table, read-out: MIC C. jejuni
[19] = planktonic, Furan analogues table, read-out: MIC S. epidermidis Plank
[20] = biofilm, Furan analogues table, read-out: MIC E. coli Biofilm
[21] = Furan analogues table, read-out: MIC MRSA
[22] = planktonic, Furan analogues table, read-out: MIC E. coli Plank
[23] = Furan analogues table, read-out: MIC H. pylori

MIC ([1]; Campylobacter jejuni, Furan analogues table, read-out: MIC C. jejuni): 12.5 µM (≈ 2.99 µg/mL)
MIC ([2]; Escherichia coli, biofilm, Furan analogues table, read-out: MIC E. coli Biofilm): 134 µM (≈ 32 µg/mL)
PFOR inhibition relative to nitazoxanide (=100) ([3]; Furan analogues table): 98%
MIC ([4]; Staphylococcus aureus, MRSA, Furan analogues table, read-out: MIC MRSA): 50.2 µM (≈ 12 µg/mL)
MIC ([5]; Clostridioides difficile, Furan analogues table, read-out: MIC C. difficile): 33.4 µM (≈ 7.99 µg/mL)
MIC ([7]; Escherichia coli, planktonic, Furan analogues table, read-out: MIC E. coli Plank): 134 µM (≈ 32 µg/mL)
MIC ([8]; Helicobacter pylori, Furan analogues table, read-out: MIC H. pylori): 0.8 µM (≈ 0.191 µg/mL)
Compound: O=C(Nc1ncc([N+](=O)[O-])s1)c1ccoc1 [VPC16a1006, N-(5-Nitrothiazol-2-yl)furan-3-carboxamide]
Disk Diff (%) C. difficile [6]: 97 ± 3%

MIC ([1]; Campylobacter jejuni, broth dilution, Brain Heart Infusion, 24 h, read-out: MIC (μM) C. jejuni): 5.5 µM (≈ 1.34 µg/mL)
MIC ([9]; Staphylococcus epidermidis, broth dilution, Trypticase Soy, 24 h, read-out: MIC (μM) S. epidermidis Plank): 32.9 µM (≈ 8 µg/mL)
MIC ([2]; Escherichia coli, read-out: MIC (μM) E. coli Biofilm): 132 µM (≈ 32 µg/mL)
PFOR inhibition relative to nitazoxanide (=100) [3]: 123%
MIC ([5]; Clostridioides difficile, agar dilution, anaerobic, Wilkins Chalgrin agar, read-out: MIC (μM) C. difficile): 65.8 µM (≈ 16 µg/mL)
MIC ([7]; Escherichia coli, broth dilution, LB medium, 24 h, read-out: MIC (μM) E. coli Plank): 132 µM (≈ 32 µg/mL)
MIC ([8]; Helicobacter pylori, broth dilution, Brain Heart Infusion, 24 h, read-out: MIC (μM) H. pylori): 1.4 µM (≈ 0.341 µg/mL)
Compound: CCCCCC(=O)Nc1ncc([N+](=O)[O-])s1 [VPC16a1007, N-(5-Nitrothiazol-2-yl)hexanamide]
Disk Diffusion (%) C. difficile [6]: 56.5 ± 0.5%

MIC [1, 11]: 11.4 µM (≈ 2.91 µg/mL)
MIC [9, 12]: 31.3 µM (≈ 7.99 µg/mL)
MIC [2, 13]: 31.3 µM (≈ 7.99 µg/mL)
PFOR inhibition relative to nitazoxanide (=100) [3]: 93%
MIC [4, 14]: 125.2 µM (≈ 32 µg/mL)
MIC [5, 15]: 62.6 µM (≈ 16 µg/mL)
MIC [7, 16]: 125.2 µM (≈ 32 µg/mL)
MIC [8, 17]: 0.7 µM (≈ 0.179 µg/mL)
Compound: O=C(Nc1ncc([N+](=O)[O-])s1)C1CCCCC1 [VPC16a1010]
Disk Diffusion (%) C. difficile [6]: 53 ± 3%

Compound: O=C(Nc1ncc([N+](=O)[O-])s1)c1ccc([N+](=O)[O-])o1 [VPC16b1007]
MIC [1, 18]: 7.0 µM (≈ 1.99 µg/mL)
MIC S. epidermidis Biofilm [10]: 56.3 µM (≈ 16 µg/mL)
MIC [9, 19]: 28.1 µM (≈ 7.99 µg/mL)
MIC [2, 20]: 26.4 µM (≈ 7.5 µg/mL)
MIC [4, 21]: 112.6 µM (≈ 32 µg/mL)
MIC ([5]; Furan analogues table, read-out: MIC C. difficile): 28.2 µM (≈ 8.01 µg/mL)
Disk Diff (%) C. difficile [6]: 102 ± 8%
MIC [7, 22]: 14.1 µM (≈ 4.01 µg/mL)
MIC [8, 23]: 21.1 µM (≈ 6 µg/mL)

Compound: N#Cc1ccc(C(=O)Nc2ncc([N+](=O)[O-])s2)cc1 [VPC161086]
MIC [1, 11]: 43.8 µM (≈ 12 µg/mL)
MIC (μM) S. epidermidis Biofilm [10]: 4.6 µM (≈ 1.26 µg/mL)
MIC [9, 12]: 21.9 µM (≈ 6.01 µg/mL)
MIC [2, 13]: 58.3 µM (≈ 16 µg/mL)
PFOR inhibition relative to nitazoxanide (=100) [3]: 74%
MIC [4, 14]: 14.6 µM (≈ 4 µg/mL)
MIC [7, 16]: 87.5 µM (≈ 24 µg/mL)
MIC [8, 17]: 9.1 µM (≈ 2.5 µg/mL)

Compound: COc1cc([N+](=O)[O-])ccc1C(=O)Nc1ncc([N+](=O)[O-])s1 [VPC161093]
MIC [1, 11]: 9.3 µM (≈ 3.02 µg/mL)
MIC (μM) S. epidermidis Biofilm [10]: 12.3 µM (≈ 3.99 µg/mL)
MIC [9, 12]: 12.3 µM (≈ 3.99 µg/mL)
MIC [2, 13]: 98.7 µM (≈ 32 µg/mL)
PFOR inhibition relative to nitazoxanide (=100) [3]: 115%
MIC [4, 14]: 98.7 µM (≈ 32 µg/mL)
MIC [5, 15]: 98.7 µM (≈ 32 µg/mL)
MIC [7, 16]: 98.7 µM (≈ 32 µg/mL)
MIC [8, 17]: 0.6 µM (≈ 0.195 µg/mL)

Compound: O=C(Nc1ncc([N+](=O)[O-])s1)c1ccco1 [VPC161124]
MIC [1, 18]: 8.4 µM (≈ 2.01 µg/mL)
MIC S. epidermidis Biofilm [10]: 66.9 µM (≈ 16 µg/mL)
MIC [9, 19]: 66.9 µM (≈ 16 µg/mL)
MIC [2, 20]: 33.4 µM (≈ 7.99 µg/mL)
PFOR inhibition relative to nitazoxanide (=100) ([3]; Furan analogues table): 82%
MIC [4, 21]: 50.2 µM (≈ 12 µg/mL)
Disk Diff (%) C. difficile [6]: 100%
MIC [7, 22]: 133.8 µM (≈ 32 µg/mL)
MIC [8, 23]: 1.0 µM (≈ 0.239 µg/mL)

Reference: patent publication US8835644B2, “Broad spectrum benzothiophene-nitrothiazolide and other antimicrobials” (University of Virginia Patent Foundation, priority 2009, dated 2014)
